Calls of active or inactive are those of the source.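 How the source made its calls: active means compounds cutting yeast counts by over 60% at top dose, with positive span-based score; inactive means the rest.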
Tested on: S. cerevisiae growth, flow cytometry event count, 7 d
Assay: S. cerevisiae cytotoxicity, flow cytometry event loss – powder samples, cytotoxicity control for yeast caloric restriction mimetic project, dose response (AID 504926)
Details: at 100 µM; active compounds read high

With CC(C)(C)Nc1ncnc2c1cnn2-c1ccccc1 as the compound, how does the event count decrease read?
Its event count decrease is 18% (inactive).

How did the event count decrease turn out when Cc1ccc(-c2nn(C(C)(C)C)c3ncnc(N)c23)cc1 was run?
Its event count decrease is -42% (inactive).

Which event count decrease does the source give for CCCCCNC(=O)C(=O)C1C(=O)Nc2ccccc21 (stereo not drawn) here?
The event count decrease was 66%.

With CCN(CC)C(=O)c1ccc2nc3ccccc3nc2c1 as the compound, how does the event count decrease read?
Its event count decrease is -99% (inactive).

For Nc1cc2nc3ccccc3nc2cc1N, which event count decrease is on record?
Its event count decrease is -45% (inactive).

How did the event count decrease turn out when O=C(Nc1cccc(Cl)c1)Nc1ccc2nccnc2c1 was run?
Its event count decrease is -73% (inactive).

With CC(C)OC(=O)c1ccc2nc3ccccc3nc2c1 as the compound, how does the event count decrease read?
The event count decrease was 4% (inactive).

Which event count decrease does the source give for N#CCc1nn(-c2ccccc2)c2ncnc(N)c12 here?
The event count decrease was 31% (inactive).

How did the event count decrease turn out when c1ccc2[nH]c3cc4ncnc4cc3nc2c1 was run?
The event count decrease was -129% (inactive).

Which event count decrease does the source give for CC(C)(C)n1nc(-c2ccc(Cl)cc2)c2c(N)ncnc21 here?
Its event count decrease is -87% (inactive).

Which event count decrease does the source give for CCn1c2ccccc2c2n[nH]c(=S)nc21 here?
The event count decrease was -35% (inactive).

With O=C1c2c(O)ccc(O)c2C(=O)c2c(NCCNCCO)ccc(NCCNCCO)c21 as the compound, how does the event count decrease read?
Its event count decrease is -180% (inactive).

With C#CCSc1ccc(-c2ccc([N+](=O)[O-])cc2)o1 as the compound, how does the event count decrease read?
Its event count decrease is 21% (inactive).

How did the event count decrease turn out when C=CCOn1c(=O)c(-c2cccs2)[n+]([O-])c2ccccc21 was run?
Its event count decrease is -43% (inactive).

With COc1ccc2c(c1)c1nnc(SC)nc1n2C as the compound, how does the event count decrease read?
The event count decrease was -72% (inactive).

Which event count decrease does the source give for Cc1cc(C)cc(NC(=O)CN2CCN(c3ccccn3)CC2)c1 here?
The event count decrease was 2% (inactive).

How did the event count decrease turn out when CCN(CC)C(=O)CSc1nnc(-c2cccc(OC)c2)o1 was run?
Its event count decrease is -66% (inactive).

CN1CCN(C(=O)c2ccc3nccnc3c2)CC1 was tested. Which event count decrease did it give?
Its event count decrease is -332% (inactive).

COc1ccc2cc(C3CC(c4ccco4)=NN3S(=O)(=O)c3ccccc3)c(Cl)nc2c1 (stereo not drawn) was tested. Which event count decrease did it give?
Its event count decrease is 26% (inactive).

Which event count decrease does the source give for Oc1cccc2nc3ccccc3nc12 here?
The event count decrease was 69%.

How did the event count decrease turn out when CN(C)CCNc1ncnc2c1cnn2-c1ccc(Cl)cc1 was run?
Its event count decrease is 19% (inactive).

Which event count decrease does the source give for O=C(NCc1ccccc1)c1ccc2nccnc2c1 here?
The event count decrease was 80% (inactive).

With CCc1nc(NC(C)(C)C)c2cnn(-c3ccccc3)c2n1 as the compound, how does the event count decrease read?
The event count decrease was 52% (inactive).

Which event count decrease does the source give for CC(C)CSc1nnc2c3ccccc3n(C)c2n1 here?
Its event count decrease is -5% (inactive).

CCN(CC)C(=O)c1cccc2nc3ccccc3nc12 was tested. Which event count decrease did it give?
Its event count decrease is -36% (inactive).

For O=c1[nH]c(O)c(C=Nc2ccc(F)c(Cl)c2)c(=O)[nH]1, which event count decrease is on record?
Its event count decrease is 27% (inactive).

With C[C@@]12C(=O)OC(=O)[C@]1(C)C1CCC2O1 as the compound, how does the event count decrease read?
Its event count decrease is 88%.

How did the event count decrease turn out when O=C(O)c1ccc2nccnc2c1 was run?
The event count decrease was 47% (inactive).

How did the event count decrease turn out when O=C(Nc1ccc2nccnc2c1)c1cccc2nccnc12 was run?
The event count decrease was 95% (inactive).

Which event count decrease does the source give for Cc1cc2nc3ccc(N(C)C)cc3nc2cc1N here?
Its event count decrease is -28% (inactive).

CCN(CC)c1ccc2nc3ccc(N)cc3[n+](-c3ccccc3)c2c1 was tested. Which event count decrease did it give?
The event count decrease was -22% (inactive).

How did the event count decrease turn out when O=C(c1cccc2nccnc12)N1CCN(c2ccccc2F)CC1 was run?
Its event count decrease is 55% (inactive).

Which event count decrease does the source give for CN(C)C(=O)c1ccc2nccnc2c1 here?
Its event count decrease is -100% (inactive).

For CSc1nnc(-c2ccc([N+](=O)[O-])cc2)o1, which event count decrease is on record?
The event count decrease was 44% (inactive).

How did the event count decrease turn out when O=C(/C=C/c1cccs1)NC(=S)NNC(=O)Cc1cccs1 was run?
Its event count decrease is 81%.

How did the event count decrease turn out when Nc1ccc2nccnc2c1 was run?
Its event count decrease is -19% (inactive).

How did the event count decrease turn out when O=C(Nc1ccc2nccnc2c1)NC1CCCCC1 was run?
Its event count decrease is 8% (inactive).

How did the event count decrease turn out when Cn1c(=O)[nH]c2nncnc2c1=O was run?
Its event count decrease is 24% (inactive).

For CC(C)(C)n1nc(-c2ccc(F)cc2)c2c(N)ncnc21, which event count decrease is on record?
Its event count decrease is -56% (inactive).

For O=C(O)c1cccc2nccnc12, which event count decrease is on record?
The event count decrease was -180% (inactive).

Which event count decrease does the source give for Cc1ccccc1NC(=O)c1cccc2nc3ccccc3nc12 here?
The event count decrease was -36% (inactive).

COc1ccc2nc3ccccc3nc2c1N was tested. Which event count decrease did it give?
The event count decrease was -32% (inactive).

Which event count decrease does the source give for [O-][n+]1c2ccccc2[n+]([O-])c2cc(O)ccc21 here?
Its event count decrease is 15% (inactive).

With COc1ccc2nc3ccccc3[n+]([O-])c2c1 as the compound, how does the event count decrease read?
Its event count decrease is 41% (inactive).

With O=C(O)c1cnc2ccccc2n1 as the compound, how does the event count decrease read?
Its event count decrease is 7% (inactive).

O=C(/C=C/c1ccccc1)NC(=S)NNC(=O)Cc1cccs1 was tested. Which event count decrease did it give?
Its event count decrease is 57% (inactive).

Which event count decrease does the source give for CC(C)(C)NC(=O)Nc1ccc2nccnc2c1 here?
The event count decrease was -56% (inactive).

N#CC(c1nc2ccccc2nc1N1CCCC1)S(=O)(=O)c1ccccc1 (stereo not drawn) was tested. Which event count decrease did it give?
Its event count decrease is 51% (inactive).

CCC(=Nc1ccccc1O)C1=C(O)CC(c2ccccc2)CC1=O (stereo not drawn) was tested. Which event count decrease did it give?
The event count decrease was -11% (inactive).

With O=C(c1cccc2nccnc12)N1CCOc2ccccc21 as the compound, how does the event count decrease read?
The event count decrease was -51% (inactive).

CNc1ccc2nc3ccccc3[n+](C)c2c1 was tested. Which event count decrease did it give?
The event count decrease was 45% (inactive).

With O=C(Nc1ccc2nc3ccccc3nc2c1)c1ccc(Br)cc1 as the compound, how does the event count decrease read?
The event count decrease was 68% (inactive).

For O=C(c1ccc2nccnc2c1)N1CCN(c2ccccc2)CC1, which event count decrease is on record?
Its event count decrease is -299% (inactive).

With OCC[n+]1c2ccccc2nc2ccc(N3CCOCC3)cc21 as the compound, how does the event count decrease read?
The event count decrease was 19% (inactive).

Which event count decrease does the source give for O=C(Nc1ccc2nccnc2c1)N1CCOCC1 here?
The event count decrease was -21% (inactive).

For O=C(Nc1ccccc1)c1ccc2nccnc2c1, which event count decrease is on record?
The event count decrease was -494% (inactive).

With COc1ccc2nc3ccccc3nc2c1NC(=O)c1ccccc1Cl as the compound, how does the event count decrease read?
The event count decrease was 43% (inactive).

For c1ccc2nc3ccccc3nc2c1, which event count decrease is on record?
Its event count decrease is 41% (inactive).

CC(=O)Nc1ccc2nc3ccccc3nc2c1 was tested. Which event count decrease did it give?
The event count decrease was 43% (inactive).

How did the event count decrease turn out when C=CCSc1ccc(-c2ccc([N+](=O)[O-])cc2)o1 was run?
Its event count decrease is 40% (inactive).

How did the event count decrease turn out when COc1cccc2nc3cc(C)c(C)cc3nc12 was run?
Its event count decrease is 56% (inactive).

CC(C)OC(=O)CSc1nnc(-c2ccc(Cl)cc2Cl)o1 was tested. Which event count decrease did it give?
The event count decrease was 41% (inactive).

Which event count decrease does the source give for C[n+]1c2ccccc2nc2ccc(NCCO)cc21 here?
Its event count decrease is 56% (inactive).

With O=C(OCc1c(F)cccc1Cl)c1cnc2ccccc2n1 as the compound, how does the event count decrease read?
The event count decrease was 53% (inactive).

FC(F)(F)c1nc2cc3nc4ccccc4[nH]c3cc2n1 was tested. Which event count decrease did it give?
The event count decrease was -72% (inactive).

Which event count decrease does the source give for O=C(c1cccc2nc3ccccc3nc12)N1CCOCC1 here?
Its event count decrease is -106% (inactive).

For O=C(c1ccc2nccnc2c1)N1CCCCC1, which event count decrease is on record?
The event count decrease was -141% (inactive).

COc1ccc2nc3ccccc3nc2c1 was tested. Which event count decrease did it give?
The event count decrease was 35% (inactive).

For O=C(Nc1cccc2nccnc12)c1ccccc1, which event count decrease is on record?
Its event count decrease is 16% (inactive).

Cn1c(O)c(C(=Nc2ccc(F)cc2)c2ccccc2Cl)c(=O)n(C)c1=O was tested. Which event count decrease did it give?
Its event count decrease is -114% (inactive).

Which event count decrease does the source give for O=C(CN1CCN(c2ccccn2)CC1)Nc1ccccc1F here?
Its event count decrease is -51% (inactive).

O=C(Nc1ccc2nccnc2c1)N1CCN(c2ccccc2)CC1 was tested. Which event count decrease did it give?
The event count decrease was -25% (inactive).

For Cc1cc(C)c2[nH]c3nc(SCC(=O)O)nnc3c2c1, which event count decrease is on record?
The event count decrease was 16% (inactive).
